From patent US20170166558A1, “O-GLCNAC TRANSFERASE (OGT) INHIBITORS AND USES THEREOF” (President and Fellows of Harvard College, priority 2014, published 2017)
Read-outs that look alike come from different tables or passages of the source.

Target: T1, sOGT (Homo sapiens, UniProt O15294)
T1 sequence (O15294 1-665 isoform O15294-4): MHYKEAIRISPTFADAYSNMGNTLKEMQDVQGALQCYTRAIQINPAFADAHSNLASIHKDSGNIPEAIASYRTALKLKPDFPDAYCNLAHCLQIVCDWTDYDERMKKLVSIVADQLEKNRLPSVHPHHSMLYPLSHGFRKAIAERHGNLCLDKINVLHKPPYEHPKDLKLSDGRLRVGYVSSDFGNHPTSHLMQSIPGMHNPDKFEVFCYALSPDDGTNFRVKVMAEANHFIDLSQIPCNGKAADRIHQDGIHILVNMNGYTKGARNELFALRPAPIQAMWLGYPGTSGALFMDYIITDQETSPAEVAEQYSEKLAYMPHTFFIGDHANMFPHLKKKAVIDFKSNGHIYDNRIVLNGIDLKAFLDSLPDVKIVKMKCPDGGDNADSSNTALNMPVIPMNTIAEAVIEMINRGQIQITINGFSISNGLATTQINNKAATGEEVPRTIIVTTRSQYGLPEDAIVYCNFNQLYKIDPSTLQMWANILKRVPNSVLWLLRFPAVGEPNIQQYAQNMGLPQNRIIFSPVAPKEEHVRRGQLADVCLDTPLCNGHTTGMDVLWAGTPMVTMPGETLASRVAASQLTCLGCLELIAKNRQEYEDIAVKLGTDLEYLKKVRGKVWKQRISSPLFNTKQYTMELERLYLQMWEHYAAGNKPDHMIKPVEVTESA
Assay: Fluorescence polarization displacement screen with fluorescein-linked UDP-GlcNAc analog
Type: binding
Settings: for remaining activity at 100 µM: read-out: % OGT activity (100 μM treatment)

Row | Compound | % OGT activity (100 μM treatment) | remaining activity at 100 µM (100 μM treatment) [%] | other results
1 | O=C([C@@H](NS(=O)(=O)c1ccc2[nH]c(=O)[nH]c(=O)c2c1)c1ccccc1)N(Cc1ccco1)Cc1cccs1 | No inhibition | – | –
2 | O=C([C@@H](NS(=O)(=O)c1ccc2[nH]c(=O)ccc2c1)c1ccccc1)N(Cc1ccco1)Cc1cccs1 | – | – | remaining activity at 100 µM: 7%
3 | O=C([C@H](NS(=O)(=O)c1ccc2[nH]c(=O)ccc2c1)c1ccc(O)cc1)N(Cc1ccco1)Cc1cccs1 | – | 0.7 | –
4 | O=C([C@H](NS(=O)(=O)c1ccc2[nH]c(=O)[nH]c(=O)c2c1)c1ccccc1)N(Cc1ccco1)Cc1cccs1 | – | 68 | –
5 | O=C([C@H](NS(=O)(=O)c1ccc2[nH]c(=O)ccc2c1)c1ccccc1)N(Cc1ccco1)Cc1cccs1 | – | – | remaining activity at 100 µM: 1.73%
6 | O=C([C@H](NS(=O)(=O)c1ccc2[nH]c(=O)ccc2c1)c1ccc(F)cc1)N(Cc1ccco1)Cc1cccs1 | – | 5 | –
7 | O=C([C@H](NS(=O)(=O)c1ccc2[nH]c(=O)ccc2c1)c1ccc(Cl)cc1)N(Cc1ccco1)Cc1cccs1 | – | 22 | –
8 | O=C([C@H](NS(=O)(=O)c1ccc2[nH]c(=O)ccc2c1)C1CCCCC1)N(Cc1ccco1)Cc1cccs1 | – | 22 | –
9 | O=C([C@H](NS(=O)(=O)c1ccc2[nH]c(=O)ccc2c1)c1cccs1)N(Cc1ccco1)Cc1cccs1 | – | 7 | –
10 | COc1ccc([C@@H](NS(=O)(=O)c2ccc3[nH]c(=O)ccc3c2)C(=O)N(Cc2ccco2)Cc2cccs2)cc1 | – | 2.9 | –
11 | O=C([C@@H](NS(=O)(=O)c1ccc2[nH]c(=O)ccc2c1)c1ccc(F)cc1)N(Cc1ccco1)Cc1cccs1 | – | 0.9 | –
12 | CN1CCN(C(=O)[C@H](NS(=O)(=O)c2ccc3[nH]c(=O)ccc3c2)c2ccccc2)CC1 | – | 47 | –
13 | CN(Cc1cccs1)C(=O)[C@H](NS(=O)(=O)c1ccc2[nH]c(=O)ccc2c1)c1ccccc1 | – | 2.5 | –
14 | O=C([C@H](NS(=O)(=O)c1ccc2[nH]c(=O)ccc2c1)c1ccccc1)N1CCOCC1 | – | 47 | –
15 | CCNC(=O)[C@H](NS(=O)(=O)c1ccc2[nH]c(=O)ccc2c1)c1ccccc1 | – | 26 | –
16 | COc1cccc([C@@H](NS(=O)(=O)c2ccc3[nH]c(=O)ccc3c2)C(=O)N(Cc2ccco2)Cc2cccs2)c1 | – | 2.5 | –
17 | O=C(NCc1cccs1)[C@H](NS(=O)(=O)c1ccc2[nH]c(=O)ccc2c1)c1ccccc1 | No inhibition | – | –
18 | O=C(NCc1ccco1)[C@H](NS(=O)(=O)c1ccc2[nH]c(=O)ccc2c1)c1ccccc1 | – | 64 | –
19 | CN(Cc1ccco1)C(=O)[C@H](NS(=O)(=O)c1ccc2[nH]c(=O)ccc2c1)c1ccccc1 | – | 5 | –
20 | O=C([C@H](NS(=O)(=O)c1ccc2[nH]c(=O)ccc2c1)c1ccccc1)N1CCCCC1 | – | 22 | –
21 | CCCC[C@@H](NS(=O)(=O)c1ccc2[nH]c(=O)ccc2c1)C(=O)N(Cc1ccco1)Cc1cccs1 | – | 8 | –
22 | O=C(C(NS(=O)(=O)c1ccc2[nH]c(=O)ccc2c1)c1ccc(C(F)(F)F)cc1)N(Cc1ccco1)Cc1cccs1 (stereo not shown) [drawing 122] | 33% | – | –
23 | O=C(C(NS(=O)(=O)c1ccc2[nH]c(=O)ccc2c1)c1ccc(C(F)(F)F)cc1)N(Cc1ccco1)Cc1cccs1 (stereo not shown) [drawing 126] | 54% | – | –
24 | O=C(C(NS(=O)(=O)c1ccc2[nH]c(=O)ccc2c1)c1cccc(C(F)(F)F)c1)N(Cc1ccco1)Cc1cccs1 (stereo not shown) [drawing 127] | 29% | – | –
25 | O=C(C(NS(=O)(=O)c1ccc2[nH]c(=O)ccc2c1)c1cccc(C(F)(F)F)c1)N(Cc1ccco1)Cc1cccs1 (stereo not shown) [drawing 128] | 7.4% | – | –
26 | Cc1ccc(C(NS(=O)(=O)c2ccc3[nH]c(=O)ccc3c2)C(=O)N(Cc2ccco2)Cc2cccs2)cc1 (stereo not shown) [drawing 130] | 11% | – | –

Continued, in another order:

Row | % OGT activity (100 μM treatment) | remaining activity at 100 µM (100 μM treatment) [%] | Compound | other results
27 | – | 4 | O=C([C@H](NS(=O)(=O)c1ccc2[nH]c(=O)ccc2c1)c1ccccc1Cl)N(Cc1ccco1)Cc1cccs1 | –
28 | – | 2.6 | O=C([C@H](NS(=O)(=O)c1ccc2[nH]c(=O)ccc2c1)c1cccc(F)c1)N(Cc1ccco1)Cc1cccs1 | –
29 | – | 56 | O=C(C1c2ccccc2CN1S(=O)(=O)c1ccc2[nH]c(=O)ccc2c1)N(Cc1ccco1)Cc1cccs1 (stereo not shown) [drawing 109] | –
30 | – | 47 | O=C(C1c2ccccc2CCN1S(=O)(=O)c1ccc2[nH]c(=O)ccc2c1)N(Cc1ccco1)Cc1cccs1 (stereo not shown) [drawing 110] | –
31 | 43% | – | O=C(C1c2ccccc2CN1S(=O)(=O)c1ccc2[nH]c(=O)ccc2c1)N(Cc1ccco1)Cc1cccs1 (stereo not shown) [drawing 114] | –
32 | 65% | – | O=C(C1c2ccccc2CCN1S(=O)(=O)c1ccc2[nH]c(=O)ccc2c1)N(Cc1ccco1)Cc1cccs1 (stereo not shown) [drawing 115] | –
33 | 0.7% | – | O=C(C(NS(=O)(=O)c1ccc2[nH]c(=O)ccc2c1)c1ccccc1C(F)(F)F)N(Cc1ccco1)Cc1cccs1 (stereo not shown) [drawing 119] | –
34 | 11% | – | O=C(C(NS(=O)(=O)c1ccc2[nH]c(=O)ccc2c1)c1ccccc1C(F)(F)F)N(Cc1ccco1)Cc1cccs1 (stereo not shown) [drawing 121] | –
35 | 38% | – | O=C(C(NS(=O)(=O)c1ccc2[nH]c(=O)ccc2c1)c1ccccc1C(F)(F)F)N(Cc1ccco1)Cc1cccs1 (stereo not shown) [drawing 125] | –
36 | 0.5% | – | O=C(C(NS(=O)(=O)c1ccc2[nH]c(=O)ccc2c1)c1ccccc1F)N(Cc1ccco1)Cc1cccs1 (stereo not shown) [drawing 129] | –
37 | No inhibition | – | Cc1cccc(C(NS(=O)(=O)c2ccc3[nH]c(=O)ccc3c2)C(=O)N(Cc2ccco2)Cc2cccs2)c1 (stereo not shown) [drawing 131] | –
38 | 4.5% | – | Cc1ccccc1C(NS(=O)(=O)c1ccc2[nH]c(=O)ccc2c1)C(=O)N(Cc1ccco1)Cc1cccs1 (stereo not shown) [drawing 132] | –
39 | 24% | – | O=C(C(NS(=O)(=O)c1ccc2[nH]c(=O)ccc2c1)c1ccccc1F)N(Cc1ccco1)Cc1cccs1 (stereo not shown) [drawing 133] | –
40 | 66% | – | Cc1ccc(C(NS(=O)(=O)c2ccc3[nH]c(=O)ccc3c2)C(=O)N(Cc2ccco2)Cc2cccs2)cc1 (stereo not shown) [drawing 134] | –
41 | No inhibition | – | Cc1cccc(C(NS(=O)(=O)c2ccc3[nH]c(=O)ccc3c2)C(=O)N(Cc2ccco2)Cc2cccs2)c1 (stereo not shown) [drawing 135] | –
42 | 10% | – | Cc1ccccc1C(NS(=O)(=O)c1ccc2[nH]c(=O)ccc2c1)C(=O)N(Cc1ccco1)Cc1cccs1 (stereo not shown) [drawing 136] | –
43 | – | 53 | O=C([C@@H](Cc1ccccc1)NS(=O)(=O)c1ccc2[nH]c(=O)ccc2c1)N(Cc1ccco1)Cc1cccs1 [drawing 149] | –
